Here are results for 23 compounds from PubChem BioAssay (NCI).

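Cultured in 96-well plates, cells were exposed to test compound for 48 hours across five concentrations. TGI denotes the concentration required for complete inhibition of growth.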

For the first test, the system named is DU-145 prostate. The experiment in a line: NCI anticancer screen, dose series, 48 h.
The compound `COc1cc([C@@H]2c3cc4c(cc3[C@@H](Nc3ccc([N+](=O)[O-])cc3C(=O)c3ccccc3)[C@H]3COC(=O)[C@H]23)OCO4)cc(OC)c1OC` gave a TGI above 100 µM.
For the compound `Oc1ccc(-c2nc(-c3cccnc3)c(-c3ccc(F)cc3)[nH]2)cc1`, the TGI worked out at 63.1 µM.
For the compound `CCC1(O)CC2CC(=O)OC2C1O` (stereo unspecified), the TGI is above 100 µM.
In turn, `CCOC(=O)Nn1c(C)nnc1-c1ccccc1` came in with a TGI above 100 µM.
On the same count and under the same terms, in the case of `Cc1cn(C2CC(N(O)C(N)=O)C(CO)O2)c(=O)[nH]c1=O` (stereo unspecified) it was above 100 µM.
On the same count and under the same terms, in the case of `O=[N+]([O-])/C(C(Cl)=C(Cl)Cl)=C(\SCc1ccccc1)N1CCCCC1` it was above 100 µM; in that of `COC(=O)[C@H]1CO[C@@H](C(C)(C)C)N1C(=O)N1C=CC(=O)C[C@@H]1C`, above 100 µM.
`COc1ccc2c(=O)c(O)c(-c3ccc(OC)c(OC)c3)oc2c1` registered a TGI above 100 µM.
On the same count and under the same terms, in the case of `O=S1(=O)NC(=NCc2c[nH]c3ccccc23)N(c2ccccc2)c2ccncc21` it was above 100 µM; in that of `Cc1ccsc1/C=N/Nc1ncccn1`, above 100 µM.
On the same count and under the same terms, under `CCc1ccc(CCN2CCCCC2)nc1` stands above 100 µM.
For `COC(=O)c1cc2c(n1S(=O)(=O)c1ccc(C)cc1)C(=O)C(=O)c1[nH]cc(C(=O)OCc3ccccc3)c1-2`, the TGI came out at 0.276 µM.
Still for that read-out and setting: in the case of `COc1ccc(C2c3cc4c(cc3OC(NNS(=O)(=O)c3ccc(C)cc3)C2C)OCO4)cc1` (stereo unspecified) it was above 100 µM; in that of `COC(=O)[C@H](Cc1c[nH]c2ccccc12)NP(=O)(O)OCC1C=CC(n2cc(C)c(=O)[nH]c2=O)O1` (stereo partly specified), above 100 µM.

Another test relates to HOP-62 NSCLC. The experiment in a line: NCI anticancer screen, dose series, 48 h.
Consider `Oc1cc2c3c(c1)c1cc4c(cc1c[n+]3CC2)OCO4`, for which the TGI was above 100 µM.
On the same count and under the same terms, under `O=C(O)c1cccc2c1/C(=N/Nc1ccccc1)CC2` stands above 100 µM; under `O=c1[nH][nH]c(=O)n1Cc1ccccc1Cn1c(=O)[nH][nH]c1=O`, above 100 µM; under `c1ccc(N=C2SC3=Nc4cccc5cccc(c45)N3C2=Nc2ccccc2)cc1`, above 100 µM.
Same read-out and setting: under `CN1CCN([C@H]2C[C@H]3[C@@H]4CC=C5C[C@@H](O)CC[C@]5(C)[C@H]4CC[C@]3(C)C2=O)CC1` stands above 100 µM.
In the case of `C=C(C1=CC(=O)C(C)(C)O1)[C@@H]1CC=C([C@@H]2CC[C@H]3[C@@]2(C)CC[C@H]2C(C)(C)C(=O)[C@H](O)C[C@]32C)[C@H](O)O1`, the TGI amounted to 8.33 µM.
`CCNC(=S)N/N=C/c1cc([N+](=O)[O-])ccc1O` came in with a TGI above 100 µM.
In turn, `Oc1cccc2c(Cl)ccnc12` displayed a TGI above 100 µM.
`COc1cc([C@@H]2c3cc4c(cc3[C@@H](Nc3ccc([N+](=O)[O-])cc3C(=O)c3ccccc3)[C@H]3COC(=O)[C@H]23)OCO4)cc(OC)c1OC` showed a TGI above 100 µM.
`Oc1ccc(-c2nc(-c3cccnc3)c(-c3ccc(F)cc3)[nH]2)cc1` came in with a TGI of 36.7 µM.
Compound `CCC1(O)CC2CC(=O)OC2C1O` (stereo unspecified) displayed a TGI above 100 µM.
The same measure, in the same setting: in the case of `Cc1cn(C2CC(N(O)C(N)=O)C(CO)O2)c(=O)[nH]c1=O` (stereo unspecified) it was above 100 µM; in that of `O=[N+]([O-])/C(C(Cl)=C(Cl)Cl)=C(\SCc1ccccc1)N1CCCCC1`, above 100 µM; in that of `COC(=O)[C@H]1CO[C@@H](C(C)(C)C)N1C(=O)N1C=CC(=O)C[C@@H]1C`, above 100 µM.
`COc1ccc2c(=O)c(O)c(-c3ccc(OC)c(OC)c3)oc2c1` registered a TGI of 36.1 µM.
Still for that read-out and setting: in the case of `O=S1(=O)NC(=NCc2c[nH]c3ccccc23)N(c2ccccc2)c2ccncc21` it was above 100 µM.
As for `CC[C@@]1(O)C(=O)OCc2c1cc1n(c2=O)Cc2c-1nc1ccccc1c2/C=N\NC(=O)CN`, the TGI is 3.73 µM.
On the same count and under the same terms, under `Cc1ccsc1/C=N/Nc1ncccn1` stands above 100 µM.
Turning to `CCc1ccc(CCN2CCCCC2)nc1`, the TGI was above 100 µM.
The same measure, in the same setting: under `COC(=O)c1cc2c(n1S(=O)(=O)c1ccc(C)cc1)C(=O)C(=O)c1[nH]cc(C(=O)OCc3ccccc3)c1-2` stands 0.385 µM; under `COc1ccc(C2c3cc4c(cc3OC(NNS(=O)(=O)c3ccc(C)cc3)C2C)OCO4)cc1` (stereo unspecified), above 100 µM.
For `COC(=O)[C@H](Cc1c[nH]c2ccccc12)NP(=O)(O)OCC1C=CC(n2cc(C)c(=O)[nH]c2=O)O1` (stereo partly specified), the TGI is above 100 µM.

For the next test, the system named is RPMI-8226 leukemia. Put plainly: NCI anticancer screen, dose series, 48 h.
As to `Oc1cc2c3c(c1)c1cc4c(cc1c[n+]3CC2)OCO4`, the TGI turned out to be 6.46 µM.
With `O=C(O)c1cccc2c1/C(=N/Nc1ccccc1)CC2`, the TGI is above 100 µM.
The same measure, in the same setting: under `O=c1[nH][nH]c(=O)n1Cc1ccccc1Cn1c(=O)[nH][nH]c1=O` stands above 100 µM.
The same measure, in the same setting: under `c1ccc(N=C2SC3=Nc4cccc5cccc(c45)N3C2=Nc2ccccc2)cc1` stands above 100 µM.
Consider `CN1CCN([C@H]2C[C@H]3[C@@H]4CC=C5C[C@@H](O)CC[C@]5(C)[C@H]4CC[C@]3(C)C2=O)CC1`, for which the TGI is above 100 µM.
`COc1cc([C@@H]2c3cc4c(cc3[C@@H](Nc3ccc([N+](=O)[O-])cc3C(=O)c3ccccc3)[C@H]3COC(=O)[C@H]23)OCO4)cc(OC)c1OC` returned a TGI above 100 µM.
`Oc1ccc(-c2nc(-c3cccnc3)c(-c3ccc(F)cc3)[nH]2)cc1` yielded a TGI of 39.8 µM.
Regarding `CCC1(O)CC2CC(=O)OC2C1O` (stereo unspecified), the TGI was above 100 µM.
On the same count and under the same terms, under `CCOC(=O)Nn1c(C)nnc1-c1ccccc1` stands above 100 µM; under `Cc1cn(C2CC(N(O)C(N)=O)C(CO)O2)c(=O)[nH]c1=O` (stereo unspecified), above 100 µM; under `O=[N+]([O-])/C(C(Cl)=C(Cl)Cl)=C(\SCc1ccccc1)N1CCCCC1`, 92.9 µM.
Still for that read-out and setting: in the case of `COC(=O)[C@H]1CO[C@@H](C(C)(C)C)N1C(=O)N1C=CC(=O)C[C@@H]1C` it was above 100 µM; in that of `COc1ccc2c(=O)c(O)c(-c3ccc(OC)c(OC)c3)oc2c1`, above 100 µM; in that of `CC[C@@]1(O)C(=O)OCc2c1cc1n(c2=O)Cc2c-1nc1ccccc1c2/C=N\NC(=O)CN`, 18.8 µM.
Still for that read-out and setting: under `Cc1ccsc1/C=N/Nc1ncccn1` stands above 100 µM; under `CCc1ccc(CCN2CCCCC2)nc1`, above 100 µM; under `COC(=O)c1cc2c(n1S(=O)(=O)c1ccc(C)cc1)C(=O)C(=O)c1[nH]cc(C(=O)OCc3ccccc3)c1-2`, 0.515 µM.
The compound `COc1ccc(C2c3cc4c(cc3OC(NNS(=O)(=O)c3ccc(C)cc3)C2C)OCO4)cc1` (stereo unspecified) came in with a TGI above 100 µM.
In turn, `COC(=O)[C@H](Cc1c[nH]c2ccccc12)NP(=O)(O)OCC1C=CC(n2cc(C)c(=O)[nH]c2=O)O1` (stereo partly specified) returned a TGI above 100 µM.

In another test the test system is NCI/ADR-RES ovarian. Put plainly: NCI anticancer screen, dose series, 48 h.
Regarding `O=C(O)c1cccc2c1/C(=N/Nc1ccccc1)CC2`, the TGI was above 100 µM.
On the same count and under the same terms, under `O=c1[nH][nH]c(=O)n1Cc1ccccc1Cn1c(=O)[nH][nH]c1=O` stands above 100 µM; under `c1ccc(N=C2SC3=Nc4cccc5cccc(c45)N3C2=Nc2ccccc2)cc1`, above 100 µM.
The compound `CN1CCN([C@H]2C[C@H]3[C@@H]4CC=C5C[C@@H](O)CC[C@]5(C)[C@H]4CC[C@]3(C)C2=O)CC1` registered a TGI above 100 µM.
On the same count and under the same terms, in the case of `C=C(C1=CC(=O)C(C)(C)O1)[C@@H]1CC=C([C@@H]2CC[C@H]3[C@@]2(C)CC[C@H]2C(C)(C)C(=O)[C@H](O)C[C@]32C)[C@H](O)O1` it was 25.4 µM; in that of `CCNC(=S)N/N=C/c1cc([N+](=O)[O-])ccc1O`, 77.3 µM.
As for `Oc1cccc2c(Cl)ccnc12`, the TGI is above 100 µM.
Regarding `COc1cc([C@@H]2c3cc4c(cc3[C@@H](Nc3ccc([N+](=O)[O-])cc3C(=O)c3ccccc3)[C@H]3COC(=O)[C@H]23)OCO4)cc(OC)c1OC`, the TGI is above 100 µM.
In turn, `Oc1ccc(-c2nc(-c3cccnc3)c(-c3ccc(F)cc3)[nH]2)cc1` gave a TGI of 42.6 µM.
For the compound `CCC1(O)CC2CC(=O)OC2C1O` (stereo unspecified), the TGI is above 100 µM.
`CCOC(=O)Nn1c(C)nnc1-c1ccccc1`: the TGI is above 100 µM.
